Source: publication PMC6504913 (Angewandte Chemie (International ed. in English), 2018)

Tests used:
[1] = type: physicochemical; settings: pH 7.4 aqueous buffer
RAW 264.7 cells = assay: LPS-induced NO2^– formation in macrophage RAW 264.7 cells; type: cell-based; settings: 25 μM pretreatment 6 h, then LPS 1.0 μg/mL 18 h

Compound | stability in aqueous buffer (PNA formation) [1] | effect on LPS-induced NO2^– production (RAW 264.7 cells)
n-butylthiocarbamate [n-BuTCM-1] | stable | 
C1COCCN1.COc1ccc(P(=S)(S)N2CCOCC2)cc1 (centres unmarked) [GYY4137] |  | less pronounced effect
